According to patent publication US7718641B2, “Pyrrolo [3,4-H] isoquinoline compounds and methods for modulating gated ion channels” (Aros Pharma ApS, priority 2005, dated 2010):

Molecular target: T1, hASIC1a (Homo sapiens, UniProt P78348)
T1 sequence (P78348 1-528): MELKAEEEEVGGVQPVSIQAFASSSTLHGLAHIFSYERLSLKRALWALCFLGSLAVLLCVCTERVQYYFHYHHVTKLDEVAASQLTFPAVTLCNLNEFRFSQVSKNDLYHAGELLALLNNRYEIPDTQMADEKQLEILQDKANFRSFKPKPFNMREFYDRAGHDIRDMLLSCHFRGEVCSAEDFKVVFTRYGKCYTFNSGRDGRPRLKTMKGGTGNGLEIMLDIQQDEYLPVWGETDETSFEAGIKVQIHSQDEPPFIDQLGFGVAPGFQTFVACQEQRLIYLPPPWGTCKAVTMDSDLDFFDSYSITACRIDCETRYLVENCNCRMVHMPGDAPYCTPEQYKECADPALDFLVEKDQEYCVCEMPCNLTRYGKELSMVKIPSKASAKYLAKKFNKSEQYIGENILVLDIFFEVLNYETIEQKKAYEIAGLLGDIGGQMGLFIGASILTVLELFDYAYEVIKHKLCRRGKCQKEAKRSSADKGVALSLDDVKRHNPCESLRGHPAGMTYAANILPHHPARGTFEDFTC
Test: Whole-cell voltage clamp of pH-evoked response of human ASIC1a stably transfected in CHO cells
Assay type: cell-based
Parameters: expressed in transfected cells
Details: CHO cells
Protocol: FIG. 3 illustrates the inhibitory effect of Compound A on acid-evoked activation of human ASIC1a stably transfected in CHO cells. […] In this example, the size of the pH-evoked response was determined by measuring the area under the curve of the response (total charge transfer) and normalized to the control response. FIG. 3B depicts an example of an hASIC1a current (whole cell voltage clamp, −60 mV) evoked by a pH 6.8-buffered solution (from pH 7.4) in the presence or absence of Compound A (3 μM).
These endogenous proton-activated inward currents were recorded in the presence and absence of Compound J (1 μM) or Compound K (1 μM) using the whole cell configuration of the patch clamp method (voltage clamp mode).
All experiments are performed at room temperature (20-25° C.) in voltage clamp using conventional whole cell patch clamp methods (Neher, E., et al. (1978) Pfluegers Arch 375:219-228).
Coverslips with the cells are transferred to a 15 μl experimental chamber mounted on the stage of an inverted microscope (IMT-2, Olympus) supplied with Nomarski optics. Cells are continuously superfused with extracellular saline at a rate of 2.5 ml/min. After giga-seal formation, the whole cell configuration is attained by suction. The cells are held at a holding voltage of −60 mV and at the start of each experiment the current is continuously measured for 45 s to ensure a stable baseline. Solutions of low pH (<7) are delivered to the chamber through a custom-made gravity-driven flowpipe, the tip of which is placed approximately 50 μm from the cell. Application is triggered when the tubing connected to the flowpipe is compressed by a valve controlled by the Pulse-software. Initially, low pH (in general, pH 6.5) is applied for 5 s every 60 s. The sample interval during application is 5501s. After stable responses are obtained, the extracellular saline as well as the low-pH solution are switched to solutions containing the compound to be tested. The compound is present until responses of a repeatable amplitude are achieved. Current amplitudes are measured at the peak of the responses, and effect of the compounds is calculated as the amplitude at compound equilibrium divided by the amplitude of the current evoked by the pulse just before the compound was included.
The following salt solutions are used: extracellular solution (mM): NaCl (140), KCl (4), CaCl2 (2), MgCl2 (4), HEPES (10, pH 7.4); intracellular solution (mM): KCl (120), KOH (31), MgCl2 (1.785), EGTA (10), HEPES (10, pH 7.2). In general, compounds for testing are dissolved in 50% DMSO at 500 fold the highest concentration used.
Similar findings are shown in FIG. 3 with the human ASIC1a stably transfected in CHO cells. FIG. 3A compares the dose-response relationship between Compound A and amiloride [determined by measuring the area under the curve of the response (total charge transfer) and normalized to the control response]. […] FIGS. 14A and 14B show similar results for Compounds J and K.

- potency relative to amiloride (human ASIC1a pH-evoked response): about 100 fold
Structure (SMILES): COc1ccc(F)cc1-c1cc2c(c3c1CCN(C)C3)NC(=O)/C2=N/O [Compound A, 5-(5-fluoro-2-methoxyphenyl)-6,7,8,9-tetrahydro-3-(hydroxyimino)-8-methyl-1H-pyrrolo[3,2-h]isoquinoline-2(3H)-one]
- effect on size of human ASIC1a pH-evoked response (area under the curve, total charge transfer, normalized to control) (-60 mV, pH 6.8 from pH 7.4): reduce the human ASIC1a pH-evoked response in a dose-dependent manner
